# Values joined by “and” are separate entries in the source; they are usually repeats but may differ in a detail not shown here. Equal entries are not always repeated. After the bases stand the sugars from the 5' end (letter, count) and the backbone: PS all phosphorothioate, else s phosphorothioate and o phosphodiester by linkage. Methylation of C is not given here. e = 2'-O-(2-methoxyethyl) (MOE); k = constrained ethyl (cEt); d = 2'-deoxy (DNA)
# Target: APOL1
# Details: ASO
Sequence,"target mRNA inhibition (A431, 0.04 µM)","target mRNA inhibition (A431, 1 µM)","target mRNA inhibition (A431, 2 µM)","target mRNA inhibition (A431, 0.0625 µM)","target mRNA inhibition (A431, 0.25 µM)","target mRNA inhibition (A431, 0.0156 µM)"
"CAGTTTTGTAAGTGCA (sugars kkkddddkdkdkdddd, PS)",57% and 50%,92%,93%,,,
"AACATTGAAACACCAG (sugars k4 d9 k3, PS)",,89%,,35%,71%,
"ACATCATTGGGTTATG (sugars kddddkekekeddddd, PS)",,,76%,,,
"AGTATTGCCAGCTAAG (sugars k3 d4 k3 e1 d5, PS)",,,89%,,,
"CGTCAATATATTCTTT (sugars kkddddkekekddddd, PS)",,90%,94%,41%,75%,20%
"TTTATACCAGTGTCTT (sugars kkdddddkekeddddd, PS)",,,84%,,,
"CTTCTTATGTTATCCT (sugars k4 d9 k3, PS)",,85%,,35%,72%,
"TATTTCTTGATGTGGT (sugars kkkddddkekekdddd, PS)",,89%,95%,61%,80%,17%
"TTATATTTGATCCTCA (sugars kkddddkekekddddd, PS)",,,91%,,,
"TTGTAAGTGCAACCAA (sugars k2 d4 e3 k2 d5, PS)",,,83%,,,
"GTATTTCTTGATGTGG (sugars k2 d4 e3 k2 d5, PS)",,,97%,,,
"GGGAAATGAACGCAAT (sugars k4 d9 k3, PS)",,83%,,22%,60%,
"TGGGAATTATGGAATT (sugars kkddddekekeddddd, PS)",,,78%,,,
"AGTTTTGTAAGTGCAA (sugars kkdddddkekeddddd, PS)",,,92%,,,
"TAGTGCTATAGAGGGA (sugars k3 d10 k3, PS)",,95%,,57%,86%,
"GCTAATTTTCTGACTG (sugars k4 d9 k3, PS)",,98% and 91%,,77% and 60%,95% and 85%,
"CTAATTTTCTGACTGT (sugars kkkddddkekekdddd, PS)",,,90%,,,
"CGTCAATATATTCTTT (sugars kkkddddkdkdkdddd, PS)",,93%,95%,61%,84%,23%
"CCGTCAATATATTCTT (sugars k3 d4 k3 e1 d5, PS)",,96%,98%,70%,92%,36%
"AACGCAATGCTGACTT (sugars kkkddddkekeddddd, PS)",,,83%,,,
"GTGTGATAACTAGCTG (sugars k4 d9 k3, PS)",,93%,,78%,88%,
"CCCTTTTGGCACCTTC (sugars k4 d9 k3, PS)",,94% and 93%,,52% and 73%,81% and 88%,
"GCAGTTTTGTAAGTGC (sugars k2 d4 e3 k2 d5, PS)",,,79%,,,
"AAGTATTGCCAGCTAA (sugars kdddddkekekddddd, PS)",,,54%,,,
"TCAGATGGGTACTTCT (sugars kkddddekekeddddd, PS)",,86%,91%,30%,61%,8%
"GCTAATTTTCTGACTG (sugars kkkddddkdkdkdddd, PS)",34%,93%,93%,66%,85%,40%

Sequence,"target mRNA inhibition (A431, 0.04 µM)","target mRNA inhibition (A431, 1 µM)","target mRNA inhibition (A431, 2 µM)","target mRNA inhibition (A431, 0.0625 µM)","target mRNA inhibition (A431, 0.25 µM)","target mRNA inhibition (A431, 0.0156 µM)"
"CACAGCATTGAGTACA (sugars k4 d9 k3, PS)",,86%,,44%,66%,
"GCTAATTTTCTGACTG (sugars kkddddkekekddddd, PS)",50%,92%,96%,63%,86%,28%
"TTTGTAAGTGCAACCA (sugars kkddddekekeddddd, PS)",,96%,97%,59%,83%,29%
"CTGAAGATTGGCTCTG (sugars kkddddekekeddddd, PS)",,,53%,,,
"GCTTTAAACTCAGGTG (sugars kkddddkekekkdddd, PS)",,,50%,,,
"GTGTTATATTTGATCC (sugars kkddddekekeddddd, PS)",,,96%,,,
"GAGTATTGTTTTTGTG (sugars kkkddddkdkdkdddd, PS)",,,54%,,,
"AGAACTCAAGTCAGTA (sugars k4 d9 k3, PS)",,86% and 88%,,38% and 62%,67% and 83%,
"GCATTCAGAATTTCCA (sugars k3 d4 k3 e1 d5, PS)",,92%,95%,73%,90%,33%
"TAATTCTATTAGAGGG (sugars k2 d4 e3 k2 d5, PS)",,,59%,,,
"ATGCTAATTTTCTGAC (sugars kkddddekekeddddd, PS)",,,95%,,,
"TCAGATGGGTACTTCT (sugars kkddddkekekkdddd, PS)",,,62%,,,
"TTTGTAAGTGCAACCA (sugars kkkddddkekekdddd, PS)",,,63%,,,
"GAGTATTGTTTTTGTG (sugars kkddddkdkdkddddd, PS)",,88%,92%,34%,70%,17%
"ATTCTCATGGTACAGG (sugars kkddddkekekddddd, PS)",,,76%,,,
"AGCTTTAAACTCAGGT (sugars kddddkekekeddddd, PS)",,,52%,,,
"GTTATGAAATTATTGG (sugars kkkddddkekeddddd, PS)",,85%,93%,42%,75%,9%
"TGTTATATTTGATCCT (sugars kddddkekekeddddd, PS)",,,51%,,,
"TGATGTGGGACTTGTT (sugars k4 d9 k3, PS)",,93%,,61%,84%,
"CCGTTCCAGGCCTCAT (sugars k4 d9 k3, PS)",,65%,,48%,66%,
"TTATGAAATTATTGGT (sugars k2 d4 e3 k2 d5, PS)",,,39%,,,
"TCTATTAGAGGGCTAG (sugars kkddddekekeddddd, PS)",,,67%,,,
"GTTCTAACTCTTGGGC (sugars kkkddddkekeddddd, PS)",,,66%,,,
"GTGTTATATTTGATCC (sugars k2 d4 e3 k2 d5, PS)",52% and 50%,98%,98%,,,
"CAACACATCATTGGGT (sugars kkkddddkekekdddd, PS)",,,30%,,,
"GGAATTATGGAATTGC (sugars kkddddkekekddddd, PS)",,,82%,,,

# — the OligoGym collection
